{"source": "patent US8394391B2", "about": "“Drug delivery vehicle that mimics viral properties” (University of Utah Research Foundation, priority 2007, dated 2013)", "assay_type_in_all_cases": "cell-based, human", "key": {"A2780/AD cells [1]": {"system": "A2780/AD cells", "assay": "Migration to neighboring cells in co-culture (confocal slice images)", "conditions": "for secondary infection of co-cultured untreated cells: 20 hours co-culture", "experimental": "Experiments were conducted to verify migration of virogels to neighboring cells. Cells grown on glass slide fragments (“plates”) (1×1 cm) were pre-treated with free DOX (10 μg/ml) or equivalent DOX-loaded virogels or NPs (controls), E. S. Lee, K. Na & Y. H. Bae, Polymeric micelle for tumor pH and folate-mediated targeting, 91 J. Control. Release 103-113 (2003)) for 4 hours. These pretreated cells (A cells) were washed with PBS (pH 7.4) and co-cultured with fresh cells (B-0 cells) on new glass slide fragments for 20 hours in fresh culture medium. Co-culturing was carried out by placing a plate containing A cells and a plate containing B-0 cells next to each other, but separated by 1 mm, in a culture dish such that the A cells and B-0 cells continuously shared fresh culture medium. The A cells served as a potential source for migration of virogels, and the B-0 cells were a potential site for secondary virogel infection.\nAfter the B-0 cells were co-cultured with A cells for 20 hours, such B-0 cells were redesignated as B-1 cells. B-1 cells were then withdrawn from the culture dish and were co-cultured with fresh cells on new glass slide fragments for 20 hours in fresh culture medium. These fresh cells that had been co-cultured with B-1 cells were termed B-2 cells. These B-2 cells were then also withdrawn and co-cultured with fresh cells on new glass slide fragments for 20 hours in fresh culture medium. These fresh cells that had been co-cultured with B-2 cells were termed B-3 cells. Confocal slice images were obtained, as described above, for observing fluorescent DOX in cells. To evaluate the effect of DOX on virogel migration, blank virogels (50 μg/ml) were tested using the same procedure. FITC-labeling (Example 2) was used to visualize the blank virogels."}, "A2780 cells": {"system": "A2780 cells", "assay": "MTT cell cytotoxicity, A2780 cells", "conditions": "drug-sensitive A2780; DOX equivalent 5 μg/ml; 48 hours; pH 7.4", "experimental": "(§1) A2780 and A2780/AD cells suspended in RPMI 1640 medium (200 μl) were seeded in a 96-well plate and cultured for 24 hours before testing. Free DOX (5 μg/ml) or equivalent DOX-loaded samples (virogels and control NPs) were added to the medium-removed 96-well plate for cell cytotoxicity tests. The pH of the culture medium was adjusted to pH 7.4 or pH 6.8 for 48 hours during the test, as described in A. Patchornik et al., supra. Cell cytotoxicity was measured using the tetrazolium salt MTT assay. E. S. Lee, K. Na & Y. H. Bae, 5 Nano Lett. 325-329 (2005); E. S. Lee, K. Na & Y. H. Bae, 103 J. Control. Release 405-418 (2005)."}, "A2780/AD cells [2]": {"system": "A2780/AD cells", "assay": "MTT cell cytotoxicity, drug-resistant A2780/AD cells", "conditions": "DOX equivalent 5 μg/ml, 48 hours, pH 7.4", "experimental": "as §1"}}}
{"smiles": "COc1cccc2c1C(=O)c1c(O)c3c(c(O)c1C2=O)C[C@@](O)(C(=O)CO)C[C@@H]3O[C@H]1C[C@H](N)[C@H](O)[C@H](C)O1", "note": "[free DOX, doxorubicin]", "values": [{"measurement": "distribution of fluorescence within primary treated cells (A cells)", "setting": "A2780/AD cells [1]; 4 hours pre-treatment, DOX 10 μg/ml equivalent (blank virogels 50 μg/ml, FITC)", "result": "only limited fractions of DOX diffusing into cells"}, {"measurement": "migration from infected A2780/AD cells to untreated cells", "setting": "A2780/AD cells [1]; FIG. 7 legend, overall", "result": "no such migration"}, {"measurement": "secondary infection of co-cultured untreated cells", "setting": "A2780/AD cells [1]; first cycle, B-1 cells", "result": "No further cell effects"}, {"measurement": "secondary infection of co-cultured untreated cells", "setting": "A2780/AD cells [1]; second cycle, B-2 cells", "result": "No further cell effects"}, {"measurement": "secondary infection of co-cultured untreated cells", "setting": "A2780/AD cells [1]; third cycle, B-3 cells", "result": "No further cell effects"}, {"measurement": "viability", "setting": "A2780 cells", "result": 30, "unit": "%"}, {"measurement": "viability", "setting": "A2780/AD cells [2]", "result": 80, "unit": "%"}]}
